# Measurements as given in paper PMC8042770, “Odorant Receptors for Detecting Flowering Plant Cues Are Functionally Conserved across Moths and Butterflies” (Molecular Biology and Evolution, 2020).
# “Also recorded” adds a separate entry of the source.
# Biological target: HarmOR42 (Helicoverpa armigera, UniProt A0A7T3KAF6)
# Experiment: Xenopus oocyte two-electrode voltage clamp, HarmOR42 + Orco
# Format: cell-based
# Source text: In preliminary screening, we used a high dosage (10^−4 M) of odorants. […] Most functional ORs responded robustly to multiple odorants. The strongest response (up to ∼6,000 nanoampere, nA) we detected was that of HarmOR42 toward the aromatic compound PAA. Further, the response profiles of the 28 HarmORs appeared to be highly differentiated, with no apparent overlap in their tuning spectra (with the exception of HarmOR12 and 36) according to functional cluster analysis (fig. 1A).
# In order to expand our analysis on the response properties of HarmORs, we conducted dose–response analyses for the 28 functional HarmORs. […] Six HarmORs (OR3, 22, 48, 50, 56, and 66) could not be activated by any ligand at 10^−5 M. For the other 22 HarmORs, dose–response curves were generated and EC50 values of their major ligands were calculated (fig. 2A and supplementary table S2, Supplementary Material online). The HarmOR repertoire was highly efficient in terpene detection, since the lowest EC50 values were obtained for such compounds. Many of these terpenes have been proposed to be defensive chemicals of plants. […] DMNT is also one of the oviposition deterring compounds found in larval frass of some Lepidoptera species such as S. littoralis ([Anderson et al. 1993]).
# Functional characterization of individual ORs was performed by heterologous expression in Xenopus oocytes combined with a two-electrode voltage-clamp system ([Wang et al. 2010]). Briefly, the full-length gene of each OR and Orco were subcloned into the eukaryotic expression vector pT7TS. cRNAs were generated from linearized expression vectors using the mMESSAGE mMACHINE T7 kit (Ambion, Austin, TX). Then, the cRNA mixture of ORx and Orco (27.6 ng each) was injected (Nanoliter 2010, WPI Inc., Sarasota, FL) into oocytes (stage V–VII). The respective Orcos of different species were used for functional studies of OR42 orthologs except for the four butterfly species (V. tameamea, P. xuthus, D. plexippus, and P. rapae), in which we used the Orco from P. xuthus. After incubation in nutrient solution at 18 °C for 3–5 days, the response profile of each oocyte to multiple plant odorants was recorded via a two-electrode voltage clamp (OC-725C oocyte clamp, Warner Instruments, Hamden, CT) at a holding potential of −80 mV. Data were acquired by using a Digidata 1440 A and were analyzed by pCLAMP 10.2 software (Axon Instruments Inc., Union City, CA).
# Stock solutions of each odorant were prepared at 1 M using DMSO as a solvent, and each odorant was diluted in 1× Ringer’s solution to the indicated concentrations for electrophysiological recording. For functional screening of each HarmOR, a panel of 67 odorants belonging to three types of chemical classes: terpenes, aromatics, and aliphatics (short-chain fatty acid) were used (supplementary table S1, Supplementary Material online). For functional studies of OR42 orthologs from different species, six odorants including PAA, benzaldehyde, (E)-2-hexen-1-al, cinnamaldehyde, 2-phenylethanol, and heptanal were used.
# Sequence of HarmOR42 (A0A7T3KAF6 entry or part of it): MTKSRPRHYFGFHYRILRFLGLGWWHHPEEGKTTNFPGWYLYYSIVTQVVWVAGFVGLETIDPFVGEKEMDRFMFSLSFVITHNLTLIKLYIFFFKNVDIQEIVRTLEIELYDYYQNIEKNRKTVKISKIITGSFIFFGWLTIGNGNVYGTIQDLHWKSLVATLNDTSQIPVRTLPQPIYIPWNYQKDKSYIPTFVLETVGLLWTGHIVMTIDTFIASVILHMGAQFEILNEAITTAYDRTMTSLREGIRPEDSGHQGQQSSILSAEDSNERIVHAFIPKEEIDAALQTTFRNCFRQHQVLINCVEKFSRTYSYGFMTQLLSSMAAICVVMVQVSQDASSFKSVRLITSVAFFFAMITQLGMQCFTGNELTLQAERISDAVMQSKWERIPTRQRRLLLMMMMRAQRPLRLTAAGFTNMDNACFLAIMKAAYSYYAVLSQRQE
smiles,measurement,setting,value
O=CCc1ccccc1 [Phenylacetaldehyde],EC50,,48 µM
same,ligand tuning of HarmOR42,"67 odorants at 10^−4 M, listed as PAA",largest response; also recorded: high specificity and sensitivity
same,current response,"HarmOR42, odorant 10^−4 M, strongest response detected","~6,000 nA"
